# In publication PMC11393688, “Design and synthesis of new 1,2,4-oxadiazole/quinazoline-4-one hybrids with antiproliferative activity as multitargeted inhibitors” (Frontiers in Chemistry, 2024):
# Columns and labels:
# BRAF^V600E [1] = target: T1, BRAF^V600E (Homo sapiens, UniProt P15056, V600E); assay: BRAF^V600E kinase inhibitory assay; type: biochemical, Mouse; conditions: read-out: BRAF^V600E inhibition IC50 ± SEM
# T1 construct: Mouse full-length GST-tagged BRAFV600E; GST; purchased Invitrogen PV3849
# Method: Refer to Supplementary Appendix A for more details. […]
# 4.2.1.4. BRAF kinase assay […]
# against BRAF. Mouse full-length GST-tagged BRAFV600E (7.5 ng, Invitrogen, PV3849) was pre-incubated with drug (1 µL) and assay dilution buffer (4 µL) for 60 min at 25 °C. In assay dilution buffer, a solution (5 µL) containing MgCl2 (30 mM), ATP (200 µM), recombinant human full length (200 ng) […] N-terminal His-tagged MEK1 (Invitrogen) was added to start the assay, subsequent to incubation for 25 min at 25 °C. The assay was stopped using 5X protein denaturing buffer (LDS) solution (5 µL). To further denature the protein, heat (70° C) was applied for 5 min.
# 10 µL of each reaction was loaded into the precast plates and electrophoresis was allowed to proceed. After completion of electrophoresis, the front part of the precast gel plate (holding hot ATP) was cut and afterwards cast-off. The dried gel was developed using a phosphor screen. A […]
# served as positive control. […]
# (FITC) and propidium iodide (PI) staining kit (BD Pharmingen, San Diego, USA). […]
# 4.3. Statistical analysis
# Computerized Prism 5 program was used to statistically analyzed data using one-way ANOVA test followed by Tukey’s as post ANOVA for multiple comparison at P ≤.05. Data were presented
# [2] = system: pancreatic cancer (Panc-1) cell line; assay: Antiproliferative MTT assay, Panc-1; type: cell-based; conditions: Homo sapiens, Panc-1 pancreatic cancer cells, read-out: Antiproliferative activity IC50 ± SEM Panc-1
# Method: (§1) 4.2.1.2. Assay for antiproliferative effect
# (§2) To explore the antiproliferative potential of compounds MTT assay was performed according to previously reported procedure using different cell lines to explore the antiproliferative potential of […]
# (§3) calculate the total nuclear DNA, a fluorescent dye (propidium iodide, PI) is used which can attach to the DNA, thus offering a quick and precise technique. PI cannot pass through the cell membrane and its signal intensity can be considered as directly proportional to quantity of cellular DNA.
# (§4) Cells whose cell membranes are damaged or have changed permeability are counted as dead ones.
# (§5) The assay was performed by seeding the cells of different cell lines at a density of 3000-7500 cells/well (in 200µl medium) in culture plates followed by incubation for 24h at 37 °C in humidified 5% CO2/95% air atmospheric conditions. The medium was removed; the compounds were added to the plates at 10 µM concentrations (in 0.1% DMSO) in triplicates, followed by incubation for 48 h. DMSO (0.1%) was used as control. After incubation, medium was removed […]
# (§6) 80 °C, the plates were allowed to freeze for 24 h, followed by thawing at 25 °C. […]
# (§7) (Polar-Star BMG Tech) was used to record the readings at excitation and emission wavelengths of 530 and 620 nm for each well. The percentage cytotoxicity of compounds was calculated using […]
# (§8) Where ATC= Absorbance of treated cells and AC= Absorbance of control. Erlotinib was used as positive control in the assay.
# [3] = system: four human cancer cell lines (HT-29, Panc-1, A-549, MCF-7); assay: Average antiproliferative activity (GI50) over four cancer cell lines; type: cell-based; conditions: average IC50 against the four cancer cell lines
# Method: as §1, §2, §3, §4, §5, §6, §7, §8
# [4] = system: colon cancer (HT-29) cell line; assay: Antiproliferative MTT assay, HT-29; type: cell-based; conditions: Homo sapiens, HT-29 colon cancer cells, read-out: Antiproliferative activity IC50 ± SEM HT-29
# [5] = system: breast cancer (MCF-7) cell line; assay: Antiproliferative MTT assay, MCF-7; type: cell-based; conditions: Homo sapiens, MCF7, MCF-7 breast cancer cells, read-out: Antiproliferative activity IC50 ± SEM MCF-7
# Method: as §1, §2, §3, §4, §5, §6, §7, §8
# [6] = Cell viability, MTT test on normal cell line; type: cell-based; conditions: human, MCF-10A mammary gland epithelial cells (normal cell line), MCF-10A normal cells, 4 days incubation
# Method: The human mammary gland epithelial (MCF-10A) normal cell line was used to test the viability of novel compounds 9a-o ([Mahmoud et al., 2022]; [Mekheimer et al., 2022]). After 4 days of incubation on MCF-10A cells, the cell viability of compounds 9a-o was determined using the MTT test.
# The human mammary gland epithelial (MCF-10A) normal cell line was used to test the viability of compounds 9a-o ([Mahmoud et al., 2022]; [Mekheimer et al., 2022]). Refer to Supplementary Appendix A (Supplementary Material) for more details.
# 4.2. Biological evaluation
# 4.2.1. Cytotoxic activity using MTT Assay and evaluation of IC50
# MTT assay was carried out to study the effect of compounds on mammary epithelial cells (MCF-10A). The medium in which cells were propagated contained Dulbecco's modified Eagle's medium (DMEM)/ Ham's F-12 medium (1:1) supplemented with epidermal growth factor (20 ng/mL), hydrocortisone (500 ng/mL), insulin (10 μg/mL), 2 mM glutamine and 10% foetal calf serum.
# After every 2-3 days, the cells were passaged using trypsin ethylenediamine tetra acetic acid (EDTA). The cells were seeded at a density of 10^4 cells mL-1 in flat-bottomed culture plates containing 96 wells each. After 24 h, medium was removed from the plates and the compounds in (in 0.1% DMSO) were added (in 200 μL medium to yield a final concentration of 0.1% v/v) to the wells of plates. A single compound was designated with four wells followed by incubation of plates for 96h at 37°C. After incubation, medium was removed completely from the plates followed by addition of MTT (0.4 mg/mL in medium) to each well and subsequent incubation of plates for 3h. MTT (along with the medium) was removed and DMSO (150μL) was added to each well of the culture plates, followed by vertexing and subsequent measurement of absorbance (at 540 nm) using microplate reader. The data are shown as percentage inhibition of proliferation in comparison with controls containing 0.1% DMSO.
# EGFR [7] = target: T2, EGFR (Homo sapiens, UniProt P00533); assay: EGFR-TK inhibitory assay; type: biochemical; conditions: read-out: EGFR inhibition IC50 ± SEM
# T2 construct: amino acids 645–1186; His6 (N); made in house; host or cells: Sf-9 insect cells (baculovirus; pBlueBacHis2B / pFASTBacHTc)
# Method: 4.2.1.3. EGFR inhibitory assay
# Sf-9 cells were infected for 72h for protein expression. […]
# centrifugation for 20 min.
# Histidine-linked proteins were first eluted with 250 and then […]
# using wash buffer. Europium-tagged antiphosphotyrosine antibody (75 µL, 400 ng) was added to each well followed by incubation of 1h and then washing of the plates using buffer. The enhancement solution was added to each well and the signal was recorded at excitation and […]
# The autophosphorylation percentage inhibition by compounds was calculated using the following equation: […]
# (1 picture or pasted object on this page, not shown here)
# [8] = system: lung cancer (A-549) cell line; assay: Antiproliferative MTT assay, A-549; type: cell-based; conditions: Homo sapiens, A549, A-549 lung cancer cells, read-out: Antiproliferative activity IC50 ± SEM A-549
# Method: as §1, §2, §3, §4, §5, §6, §7, §8
# EGFR^T790M = EGFR^T790M (Homo sapiens, UniProt P00533, T790M); assay: EGFR^T790M inhibitory assay (HTRF KinEASE-TK)
# [9] = system: various cancer cell lines; design: method as in Hisham et al., 2022; Hisham et al., 2023; conditions: ref Hisham et al., 2022, 2023; cited from earlier work
# BRAF^V600E [10] = system: BRAF^V600E; design: method as in Hisham et al., 2022; Hisham et al., 2023; conditions: ref Hisham et al., 2022, 2023, read-out: IC50 against BRAF^V600E; cited from earlier work
# EGFR [11] = target: T2, EGFR; design: method as in Okaniwa et al., 2012; Zhang et al., 2013; conditions: ref Okaniwa et al., 2012; Zhang et al., 2013; cited from earlier work
# wild-type BRAF = system: wild-type BRAF; design: method as in Okaniwa et al., 2012; Zhang et al., 2013; conditions: ref Okaniwa et al., 2012; Zhang et al., 2013; cited from earlier work
# T2 sequence (P00533 669-1210): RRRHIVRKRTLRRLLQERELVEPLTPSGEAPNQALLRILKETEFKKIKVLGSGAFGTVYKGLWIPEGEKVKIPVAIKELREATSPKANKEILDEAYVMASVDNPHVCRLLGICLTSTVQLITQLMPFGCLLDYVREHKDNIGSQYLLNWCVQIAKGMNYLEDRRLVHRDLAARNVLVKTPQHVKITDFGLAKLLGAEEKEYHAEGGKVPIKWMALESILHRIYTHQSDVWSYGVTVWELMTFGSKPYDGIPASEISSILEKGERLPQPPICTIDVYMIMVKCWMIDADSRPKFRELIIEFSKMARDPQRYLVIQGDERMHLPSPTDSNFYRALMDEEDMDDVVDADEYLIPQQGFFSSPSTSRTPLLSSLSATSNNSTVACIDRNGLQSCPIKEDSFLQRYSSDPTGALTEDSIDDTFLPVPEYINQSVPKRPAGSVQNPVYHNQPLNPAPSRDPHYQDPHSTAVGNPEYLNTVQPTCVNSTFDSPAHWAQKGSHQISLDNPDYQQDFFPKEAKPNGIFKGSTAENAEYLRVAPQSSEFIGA
# T1 sequence (P15056 2-766 V600E limits assumed): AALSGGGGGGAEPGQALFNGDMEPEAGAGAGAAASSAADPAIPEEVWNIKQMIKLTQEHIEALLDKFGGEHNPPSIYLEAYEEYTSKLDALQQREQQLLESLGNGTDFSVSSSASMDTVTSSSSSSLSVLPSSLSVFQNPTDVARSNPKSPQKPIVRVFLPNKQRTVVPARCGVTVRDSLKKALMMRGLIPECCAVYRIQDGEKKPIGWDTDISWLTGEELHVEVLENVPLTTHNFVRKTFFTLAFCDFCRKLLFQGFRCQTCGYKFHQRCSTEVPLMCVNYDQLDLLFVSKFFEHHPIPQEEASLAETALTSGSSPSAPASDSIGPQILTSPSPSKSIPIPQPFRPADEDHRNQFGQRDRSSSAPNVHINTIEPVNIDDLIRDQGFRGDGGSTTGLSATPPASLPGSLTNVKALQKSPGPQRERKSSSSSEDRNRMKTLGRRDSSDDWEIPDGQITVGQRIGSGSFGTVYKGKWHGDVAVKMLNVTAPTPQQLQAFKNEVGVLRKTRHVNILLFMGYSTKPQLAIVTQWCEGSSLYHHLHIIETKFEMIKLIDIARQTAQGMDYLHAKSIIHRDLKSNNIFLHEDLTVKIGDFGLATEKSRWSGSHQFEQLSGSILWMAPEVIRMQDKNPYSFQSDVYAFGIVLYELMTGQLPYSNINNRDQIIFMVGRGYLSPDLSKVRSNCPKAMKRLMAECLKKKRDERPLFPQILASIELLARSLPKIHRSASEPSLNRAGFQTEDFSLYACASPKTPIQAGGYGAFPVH
# Chain of EGFR^T790M (P00533 25-1210 T790M): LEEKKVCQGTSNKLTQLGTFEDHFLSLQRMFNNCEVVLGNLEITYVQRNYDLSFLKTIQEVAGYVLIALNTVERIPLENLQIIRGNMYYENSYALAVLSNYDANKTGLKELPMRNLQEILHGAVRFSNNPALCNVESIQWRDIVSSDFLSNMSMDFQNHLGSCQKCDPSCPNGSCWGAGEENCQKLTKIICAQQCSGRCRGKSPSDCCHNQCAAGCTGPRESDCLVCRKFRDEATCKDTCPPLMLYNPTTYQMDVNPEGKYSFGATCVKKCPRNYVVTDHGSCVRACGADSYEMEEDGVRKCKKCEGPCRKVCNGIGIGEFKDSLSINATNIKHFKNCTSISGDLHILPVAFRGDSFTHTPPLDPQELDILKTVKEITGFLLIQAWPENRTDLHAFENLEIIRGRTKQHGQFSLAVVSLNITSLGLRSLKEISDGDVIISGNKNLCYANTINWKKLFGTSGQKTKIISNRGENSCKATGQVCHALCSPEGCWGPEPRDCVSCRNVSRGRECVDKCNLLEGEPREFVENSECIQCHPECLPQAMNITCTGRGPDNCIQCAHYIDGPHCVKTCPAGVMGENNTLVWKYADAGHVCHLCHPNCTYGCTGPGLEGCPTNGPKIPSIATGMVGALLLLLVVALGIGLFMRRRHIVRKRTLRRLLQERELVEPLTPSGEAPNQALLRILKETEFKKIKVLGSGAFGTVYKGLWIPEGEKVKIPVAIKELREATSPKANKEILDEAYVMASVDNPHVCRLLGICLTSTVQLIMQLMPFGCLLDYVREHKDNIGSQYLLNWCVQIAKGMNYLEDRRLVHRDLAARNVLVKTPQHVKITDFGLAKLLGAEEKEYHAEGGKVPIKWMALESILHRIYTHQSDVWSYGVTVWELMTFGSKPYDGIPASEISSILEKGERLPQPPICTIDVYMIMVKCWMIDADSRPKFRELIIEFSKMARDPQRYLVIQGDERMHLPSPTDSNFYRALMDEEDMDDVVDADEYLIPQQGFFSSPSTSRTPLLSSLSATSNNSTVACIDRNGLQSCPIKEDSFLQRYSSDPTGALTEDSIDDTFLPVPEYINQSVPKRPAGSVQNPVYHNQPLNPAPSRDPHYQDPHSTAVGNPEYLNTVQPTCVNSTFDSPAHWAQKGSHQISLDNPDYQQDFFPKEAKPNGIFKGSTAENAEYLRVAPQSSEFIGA
IC50 (BRAF^V600E [1]),IC50 [2],GI50 [3],IC50 [4],IC50 [5],IC50 (EGFR [7]),IC50 [8],melting point,IC50 (EGFR^T790M),SMILES,"viability at 96 h, 50 µM [6]",GI50 [9],IC50 (BRAF^V600E [10]),IC50 against EGFR (EGFR [11]),IC50 against wild-type BRAF (wild-type BRAF)
51 ± 5 nM,26 ± 2 nM,26 nM,25 ± 2 nM,28 ± 3 nM,64 ± 5 nM,24 ± 2 nM,186 to 188 °C,11 ± 2 nM,"COc1ccc(-c2noc(CSc3nc4ccccc4c(=O)n3-c3ccccc3)n2)cc1 [Compound 9c, 2-((3-(4-Methoxyphenyl)-1,2,4-oxadiazol-5-yl)methylthio)-3-phenylquinazolin-4(3H)-one]",91%,–,–,–,–
57 ± 5 nM,29 ± 2 nM,30 nM,30 ± 3 nM,31 ± 3 nM,72 ± 5 nM,28 ± 2 nM,178 to 180 °C,15 ± 2 nM,"Cc1cccc(-n2c(SCc3nc(-c4ccc(Cl)cc4)no3)nc3ccccc3c2=O)c1 [Compound 9h, 2-((3-(4-Chlorophenyl)-1,2,4-oxadiazol-5-yl)methylthio)-3-m-tolylquinazolin-4(3H)-one]",89%,–,–,–,–
–,–,–,–,–,–,–,–,–,COc1cccc2c1C(=O)c1c(O)c3c(c(O)c1C2=O)C[C@@](O)(C(=O)CO)C[C@@H]3O[C@H]1C[C@H](N)[C@H](O)[C@H](C)O1 [Doxorubicin],–,1140 nM,–,–,–
–,–,–,–,–,–,–,–,–,C=CCn1c(SCC(=O)Nc2cccc(C(=O)/C=C/c3ccc(OC)cc3)c2)nc2ccccc2c1=O [IX],–,1160 nM,650 nM,–,–
–,–,–,–,–,–,–,–,–,COc1cc2ncnc(Nc3cccc(NC(=O)Nc4ccc(Cl)c(C(F)(F)F)c4)c3)c2cc1OCCCN1CCOCC1 [I],–,–,–,nanomolar range,nanomolar range
